Patent US20110021505A1, “Use of sulfonyl-substituted 2-sulfonylaminobenzoic acid N-phenylamides in the treatment of pain” (SANOFI-AVENTIS DEUTSCHLAND GMBH, priority 2007, published 2011)

Test system: thermal hyperalgesia of the hind paws induced by injection of carrageenan
Assay: Anti-hyperalgesic effect in the carrageenan model of inflammatory triggered thermal hyperalgesia in mice after oral administration
Assay type: in vivo, male C57B6 mice
Design: key to Statistical evaluation vs. control (AUC1 h-6 h of PWL): ns: not significant; ***: significant, p < 0.0001 (ANOVA & Dunnett)
Settings: for Mean PWL (paw withdrawal latency) ± SEM: N=6 paws; for Statistical evaluation vs. control (AUC1 h-6 h of PWL): 1-way ANOVA & Dunnett; for AUC1 h-6 h of PWL (mean ± SEM): 1 h to 6 h after carrageenan, N=6
Method: In this in vivo model the anti-hyperalgesic effect was determined in mice in which a thermal hyperalgesia of the hind paws had been induced by injection of carrageenan, by measuring the paw withdrawal latency (PWL), i.e. the time until the mouse withdrew its hind paw from a heated spot of the ground. These experiments and all other animal experiments were performed in accordance with animal protection law and guidelines for the use of experimental animals.
Three test groups and one control group of animals were used each consisting of three male C57B6 mice. 1 h before injection of carrageenan, either the test compound or vehicle was administered to the animals orally by gavage. In the test groups, mice received 100 μl/10 g body weight of a suspension of the test compound in vehicle MC/T80 comprising 0.1 mg/ml, 0.3 mg/ml or 1 mg/ml (prepared as described in pharmaceutical example A) for attaining a dosage of 1 mg/kg body weight, 3 mg/kg body weight and 10 mg/kg body weight, respectively. In the control group, mice analogously received 100 μl/10 g body weight of vehicle MC/T80. For induction of hind paw inflammatory pain, then in all groups carrageenan (Sigma, Deisenhofen, Germany) at a concentration of 2% in 10 μl of saline was injected into the plantar aspect of both hind paws of the mice under slight general isofluran anesthesia. 1 h before injection of carrageenan, i.e. immediately before administration of the test compound or vehicle, and 1 h, 2 h, 4 h and 6 h after injection of carrageenan, thermal hyperalgesia was determined.
Thermal hyperalgesia was determined by measuring the paw withdrawal latency (PWL) by means of the automatic plantar test, first described for rats in K. Hargreaves et al., Pain 32 (1988), 77-88, and used in an adapted version fitted to mice described in H. Gühring et al., J. Neurosci. 20 (2000), 6714-6720. To restrict animal movement, 10.5×13.0×4.5 cm test cages were used. Instead of a glass floor, a metal grid bottom was used. PWL (in seconds) was determined on exposure of the paw to a defined thermal stimulus using a commercially available apparatus (Plantar Test, Ugo Basile Biological Research Apparatus, Comerio, Italy) fitted with a mini camera to ensure proper placement of the infrared heat below the hind paw of interest. The timer which measured the duration of reflected infrared light by the hind paw was started by the investigator and stopped once the animal shook the affected paw. A cut-off was set at 16 seconds to prevent tissue damage. For each hind paw and each time point, the mean of three to four PWL measurements was determined.
The given PWL values (in seconds) are the mean±SEM (standard error of the mean) of the PWL values obtained for each hind paw of each animal (N (number of paws)=6) of the indicated dosage group at the time points 1 h, 2 h, 4 h and 6 h after injection of carrageenan, as well as the baseline PWL values (BL) determined 1 h before administration of the test compound or vehicle and injection of carrageenan.
For the statistical analysis, PWL values were used in two ways, first with a 2-way ANOVA test based on the PWL values and second with a 1-way ANOVA test based on the area under the curve (AUC) values for the time period of 6 h after injection of carrageenan. A repeated measures 2-way ANOVA test (factor treatment and repeated measures factor time) was performed on PWL measurements. In case the interaction (treatment×time) was statistically significant, a Winer complementary analysis was done to investigate the effect of treatment for each time point. A Dunnett's test was used to study the potential differences between the control group and the test groups. […]

SMILES: O=C(Nc1ccc(S(=O)(=O)N2CCOCC2)cc1)c1cc(Cl)ccc1NS(=O)(=O)c1ccc(Cl)s1.[Na] [Example 94, 5-Chloro-2-(5-chloro-thiophene-2-sulfonylamino)-N-(4-(morpholine-4-sulfonyl)-phenyl)-benzamide sodium salt]
- Mean PWL (paw withdrawal latency) ± SEM (1 mg/kg body weight group, BL baseline before administration and carrageenan): 11.08 ± 0.40 s
- Statistical evaluation vs. control (AUC1 h-6 h of PWL) (1 mg/kg body weight oral): ns
- Mean PWL (paw withdrawal latency) ± SEM (1 mg/kg body weight oral, 1 h after carrageenan): 4.08 ± 0.62 s
- AUC1 h-6 h of PWL (mean ± SEM) (1 mg/kg body weight oral): 19.57 ± 2.19
- Mean PWL (paw withdrawal latency) ± SEM (1 mg/kg body weight oral, 2 h after carrageenan): 3.80 ± 0.28 s
- Mean PWL (paw withdrawal latency) ± SEM (1 mg/kg body weight oral, 4 h after carrageenan): 3.98 ± 0.79 s
- Mean PWL (paw withdrawal latency) ± SEM (1 mg/kg body weight oral, 6 h after carrageenan): 3.86 ± 0.48 s
- Anti-hyperalgesic effect on PWL vs. control (2-way ANOVA, Dunnett) (3 mg/kg and 10 mg/kg body weight oral, from 1 h to 4 h after carrageenan injection): Statistically significant anti-hyperalgesic effects
- Mean PWL (paw withdrawal latency) ± SEM (3 mg/kg body weight group, BL baseline before administration and carrageenan): 10.69 ± 0.27 s
- Statistical evaluation vs. control (AUC1 h-6 h of PWL) (3 mg/kg body weight oral): *** (significant, p < 0.0001 (ANOVA & Dunnett))
- Mean PWL (paw withdrawal latency) ± SEM (3 mg/kg body weight oral, 1 h after carrageenan): 8.42 ± 0.53 s
- AUC1 h-6 h of PWL (mean ± SEM) (3 mg/kg body weight oral): 44.87 ± 1.21
- Mean PWL (paw withdrawal latency) ± SEM (3 mg/kg body weight oral, 2 h after carrageenan): 10.16 ± 0.33 s
- Mean PWL (paw withdrawal latency) ± SEM (3 mg/kg body weight oral, 4 h after carrageenan): 10.84 ± 0.63 s
- Mean PWL (paw withdrawal latency) ± SEM (3 mg/kg body weight oral, 6 h after carrageenan): 3.74 ± 0.47 s
- Mean PWL (paw withdrawal latency) ± SEM (10 mg/kg body weight group, BL baseline before administration and carrageenan): 10.97 ± 0.40 s
- Statistical evaluation vs. control (AUC1 h-6 h of PWL) (10 mg/kg body weight oral): *** (significant, p < 0.0001 (ANOVA & Dunnett))
- Mean PWL (paw withdrawal latency) ± SEM (10 mg/kg body weight oral, 1 h after carrageenan): 12.46 ± 0.91 s
- AUC1 h-6 h of PWL (mean ± SEM) (10 mg/kg body weight oral): 48.70 ± 2.06
- Mean PWL (paw withdrawal latency) ± SEM (10 mg/kg body weight oral, 2 h after carrageenan): 11.24 ± 0.77 s
- Mean PWL (paw withdrawal latency) ± SEM (10 mg/kg body weight oral, 4 h after carrageenan): 11.11 ± 0.54 s
- Mean PWL (paw withdrawal latency) ± SEM (10 mg/kg body weight oral, 6 h after carrageenan): 3.40 ± 0.46 s
